From the supplement of paper PMC9663587

Experiments:
YKL-5-124 = compound: C=CC(=O)Nc1ccc(C(=O)Nc2[nH]nc3c2CN(C(=O)N[C@H](CN(C)C)c2ccccc2)C3(C)C)cc1 [YKL-5-124]; assay: increase in dead-cell fraction, 72 h; higher = more death;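 also: breast cancer cell lines in 384-well plates, stained with Hoechst plus LIVE/DEAD far red dye and imaged, cells above an LDR intensity threshold counted dead, Hoechst-negative corpses included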
BSJ-03-123 = compound: CC(=O)c1c(C)c2cnc(Nc3ccc(N4CCN(CCOCCOCCOCCNC(=O)COc5cccc6c5C(=O)N(C5CCC(=O)NC5=O)C6=O)CC4)cn3)nc2n(C2CCCC2)c1=O [BSJ-03-123]; assay: as above
[1] = compound: CC(=O)c1c(C)c2cnc(Nc3ccc(N4CCNCC4)cn3)nc2n(C2CCCC2)c1=O; assay: as above
[2] = compound: CCN1CCN(Cc2ccc(Nc3ncc(F)c(-c4cc(F)c5nc(C)n(C(C)C)c5c4)n3)nc2)CC1; assay: as above
Neratinib/HKI272 [3] = compound: T1, CCOc1cc2ncc(C#N)c(Nc3ccc(OCc4ccccn4)c(Cl)c3)c2cc1NC(=O)/C=C/CN(C)C [Neratinib/HKI272]; assay: as above
[4] = compound: CCc1cnn2c(NCc3ccc[n+]([O-])c3)cc(N3CCCC[C@H]3CCO)nc12; assay: as above
LEE011/Ribociclib = compound: CN(C)C(=O)c1cc2cnc(Nc3ccc(N4CCNCC4)cn3)nc2n1C1CCCC1 [LEE011/Ribociclib]; assay: as above
THZ531 = compound: CN(C)C/C=C/C(=O)Nc1ccc(C(=O)N2CCC[C@@H](Nc3ncc(Cl)c(-c4c[nH]c5ccccc45)n3)C2)cc1 [THZ531]; assay: as above
THZ1 [5] = compound: T2, CN(C)C/C=C/C(=O)Nc1ccc(C(=O)Nc2cccc(Nc3ncc(Cl)c(-c4c[nH]c5ccccc45)n3)c2)cc1 [THZ1]; assay: as above
Flavopiridol = compound: CN1CC[C@H](c2c(O)cc(O)c3c(=O)cc(-c4ccccc4Cl)oc23)[C@H](O)C1 [Flavopiridol]; assay: as above
Neratinib/HKI272 [6] = compound: T1, Neratinib/HKI272; assay: GR value, 72 h; higher = faster growth (1 = untreated, <0 = killing);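 also: breast cancer and non-malignant breast epithelial lines, nine half-log doses, viable cells counted by Hoechst and LIVE/DEAD dye imaging versus time-zero plates and DMSO controls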
THZ1 [7] = compound: T2, THZ1; assay: as above

UACC812 was tested, and the “increase in dead-cell fraction” value (YKL-5-124; 0.001 µM) was 0.0021, the “increase in dead-cell fraction” value (YKL-5-124; 0.003162 µM) was 0.0107 and the “increase in dead-cell fraction” value (YKL-5-124; 0.01 µM) was 0.0182. For the same cell line, the “increase in dead-cell fraction” value (YKL-5-124; 0.03162 µM) was 0.0223, the “increase in dead-cell fraction” value (YKL-5-124; 0.1 µM) was 0.0246 and the “increase in dead-cell fraction” value (YKL-5-124; 0.3162 µM) was 0.0283. The “increase in dead-cell fraction” value (YKL-5-124; 1 µM) was 0.0151, the “increase in dead-cell fraction” value (YKL-5-124; 3.162 µM) was 0.027 and the “increase in dead-cell fraction” value (YKL-5-124; 10 µM) was 0.0485. For the same cell line, the “increase in dead-cell fraction” value (BSJ-03-123; 0.001 µM) was 0.0002, the “increase in dead-cell fraction” value (BSJ-03-123; 0.003162 µM) was 0.0007 and the “increase in dead-cell fraction” value (BSJ-03-123; 0.01 µM) was 0.0021. For the same cell line, the “increase in dead-cell fraction” value (BSJ-03-123; 0.03162 µM) was 0.0004, the “increase in dead-cell fraction” value (BSJ-03-123; 0.1 µM) was 0.0012 and the “increase in dead-cell fraction” value (BSJ-03-123; 0.3162 µM) was -0.0006. For the same cell line, the “increase in dead-cell fraction” value (BSJ-03-123; 1 µM) was -0.0002, the “increase in dead-cell fraction” value (BSJ-03-123; 3.162 µM) was 0.0096 and the “increase in dead-cell fraction” value (BSJ-03-123; 10 µM) was 0.0406. The “increase in dead-cell fraction” value ([1]; 0.0003162 µM) was -0.0049, the “increase in dead-cell fraction” value ([1]; 0.001 µM) was 0.0002 and the “increase in dead-cell fraction” value ([1]; 0.003162 µM) was -0.0042. For the same cell line, the “increase in dead-cell fraction” value ([1]; 0.01 µM) was 0.005, the “increase in dead-cell fraction” value ([1]; 0.03162 µM) was 0.0019 and the “increase in dead-cell fraction” value ([1]; 0.1 µM) was 0.0099. The “increase in dead-cell fraction” value ([1]; 0.3162 µM) was 0.0073, the “increase in dead-cell fraction” value ([1]; 1 µM) was 0.0136 and the “increase in dead-cell fraction” value ([1]; 3.162 µM) was 0.0146. The “increase in dead-cell fraction” value ([2]; 0.001 µM) was -0.0019, the “increase in dead-cell fraction” value ([2]; 0.003162 µM) was 0.0028 and the “increase in dead-cell fraction” value ([2]; 0.01 µM) was 0.0044. For the same cell line, the “increase in dead-cell fraction” value ([2]; 0.03162 µM) was 0.0186, the “increase in dead-cell fraction” value ([2]; 0.1 µM) was 0.0202 and the “increase in dead-cell fraction” value ([2]; 0.3162 µM) was 0.0231. The “increase in dead-cell fraction” value ([2]; 1 µM) was 0.0272, the “increase in dead-cell fraction” value ([2]; 3.162 µM) was 0.0144 and the “increase in dead-cell fraction” value ([2]; 10 µM) was 0.073. For the same cell line, the “increase in dead-cell fraction” value (Neratinib/HKI272 [3]; 0.0003162 µM) was -0.0016, the “increase in dead-cell fraction” value (Neratinib/HKI272 [3]; 0.001 µM) was 0.0009 and the “increase in dead-cell fraction” value (Neratinib/HKI272 [3]; 0.003162 µM) was 0.0017. The “increase in dead-cell fraction” value (Neratinib/HKI272 [3]; 0.01 µM) was 0.0044, the “increase in dead-cell fraction” value (Neratinib/HKI272 [3]; 0.03162 µM) was 0.0198 and the “increase in dead-cell fraction” value (Neratinib/HKI272 [3]; 0.1 µM) was 0.0311. The “increase in dead-cell fraction” value (Neratinib/HKI272 [3]; 0.3162 µM) was 0.0666, the “increase in dead-cell fraction” value (Neratinib/HKI272 [3]; 1 µM) was 0.0547 and the “increase in dead-cell fraction” value (Neratinib/HKI272 [3]; 3.162 µM) was 0.114. The “increase in dead-cell fraction” value ([4]; 0.0001 µM) was -0.0048, the “increase in dead-cell fraction” value ([4]; 0.0003162 µM) was -0.0023 and the “increase in dead-cell fraction” value ([4]; 0.001 µM) was -0.0065. The “increase in dead-cell fraction” value ([4]; 0.003162 µM) was -0.0073, the “increase in dead-cell fraction” value ([4]; 0.01 µM) was -0.007 and the “increase in dead-cell fraction” value ([4]; 0.03162 µM) was 0.0324. The “increase in dead-cell fraction” value ([4]; 0.1 µM) was 0.478, the “increase in dead-cell fraction” value ([4]; 0.3162 µM) was 0.529 and the “increase in dead-cell fraction” value ([4]; 1 µM) was 0.523. The “increase in dead-cell fraction” value (LEE011/Ribociclib; 0.001 µM) was 0.0064, the “increase in dead-cell fraction” value (LEE011/Ribociclib; 0.003162 µM) was 0.0022 and the “increase in dead-cell fraction” value (LEE011/Ribociclib; 0.01 µM) was 0.0036. The “increase in dead-cell fraction” value (LEE011/Ribociclib; 0.03162 µM) was 0.0049, the “increase in dead-cell fraction” value (LEE011/Ribociclib; 0.1 µM) was 0.0102 and the “increase in dead-cell fraction” value (LEE011/Ribociclib; 0.3162 µM) was 0.0156. For the same cell line, the “increase in dead-cell fraction” value (LEE011/Ribociclib; 1 µM) was 0.0075, the “increase in dead-cell fraction” value (LEE011/Ribociclib; 3.162 µM) was 0.017 and the “increase in dead-cell fraction” value (LEE011/Ribociclib; 10 µM) was 0.0125. For the same cell line, the “increase in dead-cell fraction” value (THZ531; 0.0001 µM) was 0.0045, the “increase in dead-cell fraction” value (THZ531; 0.0003162 µM) was 0.0009 and the “increase in dead-cell fraction” value (THZ531; 0.001 µM) was 0.0012. The “increase in dead-cell fraction” value (THZ531; 0.003162 µM) was -0.0009, the “increase in dead-cell fraction” value (THZ531; 0.01 µM) was 0.0008 and the “increase in dead-cell fraction” value (THZ531; 0.03162 µM) was -0.0001. The “increase in dead-cell fraction” value (THZ531; 0.1 µM) was -0.0004, the “increase in dead-cell fraction” value (THZ531; 0.3162 µM) was 0.0004 and the “increase in dead-cell fraction” value (THZ531; 1 µM) was 0.0127. The “increase in dead-cell fraction” value (THZ1 [5]; 0.0001 µM) was -0.003, the “increase in dead-cell fraction” value (THZ1 [5]; 0.0003162 µM) was 0.0027 and the “increase in dead-cell fraction” value (THZ1 [5]; 0.001 µM) was -0.0004. For the same cell line, the “increase in dead-cell fraction” value (THZ1 [5]; 0.003162 µM) was 0.0019, the “increase in dead-cell fraction” value (THZ1 [5]; 0.01 µM) was 0.0019 and the “increase in dead-cell fraction” value (THZ1 [5]; 0.03162 µM) was -0.0013. The “increase in dead-cell fraction” value (THZ1 [5]; 0.1 µM) was -0.0018, the “increase in dead-cell fraction” value (THZ1 [5]; 0.3162 µM) was 0.0001 and the “increase in dead-cell fraction” value (THZ1 [5]; 1 µM) was 0.0639. The “increase in dead-cell fraction” value (Flavopiridol; 0.0001 µM) was 0.0015, the “increase in dead-cell fraction” value (Flavopiridol; 0.0003162 µM) was -0.0016 and the “increase in dead-cell fraction” value (Flavopiridol; 0.001 µM) was 0.0074. The “increase in dead-cell fraction” value (Flavopiridol; 0.003162 µM) was 0.0022, the “increase in dead-cell fraction” value (Flavopiridol; 0.01 µM) was -0.0031 and the “increase in dead-cell fraction” value (Flavopiridol; 0.03162 µM) was -0.0033. The “increase in dead-cell fraction” value (Flavopiridol; 0.1 µM) was 0.0023, the “increase in dead-cell fraction” value (Flavopiridol; 0.3162 µM) was 0.0692 and the “increase in dead-cell fraction” value (Flavopiridol; 1 µM) was 0.403. It also gave a GR value (Neratinib/HKI272 [6]; 0.0003162 µM) of 1.02 GR, a GR value (Neratinib/HKI272 [6]; 0.001 µM) of 0.785 GR and a GR value (Neratinib/HKI272 [6]; 0.003162 µM) of 0.449 GR. It also gave a GR value (Neratinib/HKI272 [6]; 0.01 µM) of 0.258 GR, a GR value (Neratinib/HKI272 [6]; 0.03162 µM) of -0.145 GR and a GR value (Neratinib/HKI272 [6]; 0.1 µM) of -0.384 GR. For the same cell line, the GR value (Neratinib/HKI272 [6]; 0.3162 µM) was -0.493 GR, the GR value (Neratinib/HKI272 [6]; 1 µM) was -0.574 GR and the GR value (Neratinib/HKI272 [6]; 3.162 µM) was -0.747 GR. The GR value (THZ1 [7]; 0.0001 µM) was 1.23 GR, the GR value (THZ1 [7]; 0.0003162 µM) was 1.05 GR and the GR value (THZ1 [7]; 0.001 µM) was 1.18 GR. The GR value (THZ1 [7]; 0.003162 µM) was 0.811 GR, the GR value (THZ1 [7]; 0.01 µM) was 1.1 GR and the GR value (THZ1 [7]; 0.03162 µM) was 0.842 GR. It also gave a GR value (THZ1 [7]; 0.1 µM) of 1.1 GR, a GR value (THZ1 [7]; 0.3162 µM) of 1.01 GR and a GR value (THZ1 [7]; 1 µM) of -0.293 GR.
